Assay results reported in patent US4100117A, “Somatostatin analogs and intermediates thereto” (Eli Lilly and Company, priority 1977, dated 1978).
Where a SMILES comes first, the peptide text is derived from it. Bridges are numbered along the chain shown (N, C = ends). [ ]: non-standard residue; d: D form.

What was measured:
growth hormone secretion = assay: inhibition of pentobarbital-stimulated growth hormone release in rats; assay type: in vivo, rat; settings: serum GH 20 minutes after dosing
Procedure: D-Val^1 -somatostatin also was tested for its activity with respect to the release of growth hormone. The procedure which was employed is carried out using normal male SpragueDawley rats weighing 100-120 grams (Laboratory Supply Company, Indianapolis, Indiana). The test is a modification of the method of P. Brazeau, W. Vale, and R. Guilleman, Endocrinology, 94 184 (1974). In this assay, five groups of eight rats each were employed. Sodium pentobarbital was administered intraperitoneally to all of the rats to stimulate growth hormone secretion. One group served as the control and received only saline. Two of the groups received somatostatin, one at 2 μg./rat, subcutaneously, and the other at 50 μg./rat, subcutaneously. The other two groups received D-Val^1 -somatostatin, one at 2 μg./rat, subcutaneously, and the other at 50 μg./rat, subcutaneously. The serum concentration of growth hormone was measured 20 minutes after simultaneous administration of sodium pentobarbital and test compound. The degree of inhibition of serum growth hormone concentration then was determined with respect to the control group, and the relative activities of D-Val^1 -somatostatin and somatostatin itself were compared.

[1] = tested on: gut motility (pylorus, duodenum, antrum pressure); assay: action on gut motility in conscious dogs (intralumenal pressure); assay type: in vivo, dog; settings: three conscious dogs; intravenous infusion over ten minutes
Procedure: D-Val^1 -somatostatin also was tested for its action on gut motility in conscious dogs. Three dogs having intralumenal catheters placed in the antrum, duodenum, and pylorus were used. Pressure changes in the gut lumen were recorded on a Visicorder using strain gauges and miniature light beam galvanometers. After a steady state control was established, D-Val^1 -somatostatin was infused intravenously over a ten minute period. […] The minimum effective dose required to increase the pyloric pressure and to decrease the duodenum and antrum pressures was <0.125 μg./kg.-10 minutes. This compares to an activity for somatostatin itself of 0.125 to 0.25 μg./kg.-10 minutes.

[2] = tested on: secretion from the pancreas induced by secretin and cholecystokinin; assay: inhibition of pancreatic secretion in dogs with pancreatic and total gastric fistula; assay type: in vivo, dog; settings: three dogs; 0.75 μg/kg-hr. for one hour
Procedure: In three dogs having both pancreatic and total gastric fistula, secretion from the pancreas was induced by infusion of secretin at 2 units/kg-hr. and cholecystokinin at 0.45 unit/kg-hr., and secretion of gastric HCl by infusion of tetragastrin at 0.5 μg/kg-hr. After a steady response was established, each dog received D-Val^1 -somatostatin for one hour at 0.75 μg/kg-hr. The peak inhibitory effect expressed as percent change over control for total protein was -51%

[3] = tested on: gastric HCl secretion induced by the C-terminal tetrapeptide of gastrin; assay: in vivo inhibition of gastric acid secretion in dogs with chronic fistula and Heidenhain pouch; design: species or system dog
Procedure: D-Val^1 -somatostatin was tested in dogs for its in vivo inhibition of gastric acid secretion. In six dogs with chronic fistula and Heidenhain pouch, gastric HCl secretion was induced by infusion of the C-terminal tetrapeptide of gastrin at 0.5 μg/kg-hr. Each dog served as its own control, receiving on a separate day only the tetrapeptide. On another day, the six dogs received the tetrapeptide, and, after one hour of steady state secretion of HCl, D-Val^1 -somatostatin was infused at 0.75 μg/kg-hr. for one hour. Collection of gastric acid samples was continued for an additional 1.5 hours at 15 minute intervals. The samples were titrated to pH 7 with an automatic titrator. The maximal inhibitory effect of the D-Val^1 -somatostatin was extrapolated against the dose-response curve of somatostatin, and the relative potency of the analog to that of somatostatin is expressed as percent activity. D-Val^1 -somatostatin inhibited steady state acid secretion induced by the C-terminal tetrapeptide of gastrin by 85.1 ± 6.0% standard error of mean. This effect is equivalent to that of 0.935 μg/kg-hr. of somatostatin. Its activity relative to that of somatostatin thus is 125%.

Q: For `CC(C)[C@@H](N)C(=O)NCC(=O)N[C@H]1CSSC[C@@H](C(=O)O)NC(=O)[C@H](CO)NC(=O)[C@H]([C@@H](C)O)NC(=O)[C@H](Cc2ccccc2)NC(=O)[C@H]([C@@H](C)O)NC(=O)[C@H](CCCCN)NC(=O)[C@H](Cc2c[nH]c3ccccc23)NC(=O)[C@H](Cc2ccccc2)NC(=O)[C@H](Cc2ccccc2)NC(=O)[C@H](CC(N)=O)NC(=O)[C@H](CCCCN)NC1=O` [D-Val^1 -somatostatin] (H-[dV]GCKNFFWKTFTSC-OH; disulfide 3-14), which “inhibition of the increase in growth hormone secretion over control” value (growth hormone secretion; 2 μg./rat subcutaneously) is on record?
A: Its value is 2%.

Q: What about the “inhibition of the increase in growth hormone secretion over control” value (growth hormone secretion; 50 μg./rat subcutaneously) of the same compound?
A: The value was 73%.

Q: And the “effect on intralumenal pressure” value [1]?
A: Its value is “initially increased the intralumenal pressure in the pylorus and then decreased it whereas the pressure in the duodenum and the antrum remained depressed throughout the test”.

Q: And the “minimum effective dose required to increase the pyloric pressure and to decrease the duodenum and antrum pressures” value [1]?
A: Its value is less than 0.125 μg./kg.-10 minutes.

Q: And the “peak inhibitory effect expressed as percent change over control for total protein” value [2]?
A: The value was -51%.

Q: What about the “equivalent dose of somatostatin giving the same effect” value ([3]; extrapolated against the dose-response curve of somatostatin, analog at 0.75 μg/kg-hr.) of the same compound?
A: The value was 0.935 μg/kg-hr.

Q: And the “activity relative to that of somatostatin” value ([3]; gastric acid secretion, dogs)?
A: The value was 125%.

Q: What about the “inhibition of steady state acid secretion induced by the C-terminal tetrapeptide of gastrin” value ([3]; six dogs, infused at 0.75 μg/kg-hr. for one hour, maximal inhibitory effect, ± standard error of mean) of the same compound?
A: The value was 85.1 ± 6.0%.
